From paper PMC3807247 (Journal of the American Chemical Society, 2009)
Where two headings read alike, the source gives them in different places.

Experiments:
[1] = tested on: AM2 channel expressed in Xenopus oocytes; details: BL-1743, TEV; cited from earlier work
[2] = molecular target: full length Udorn AM2 protein (Influenza A virus, UniProt P0DOF5); test: Two-electrode voltage clamp; assay type: cell-based, influenza virus A/Udorn/72; details: for AM2 remaing Activity after 100uM inhibition: Table 1, 100 uM inhibitor, pH 5.5, -20 mV; for inhibitory activity against AM2 (in words): tested at 100 μM
[3] = read-out: Activity remaining activity after 100uM inhibition

full length Udorn AM2 protein, sequence (P0DOF5 whole entry, looked up): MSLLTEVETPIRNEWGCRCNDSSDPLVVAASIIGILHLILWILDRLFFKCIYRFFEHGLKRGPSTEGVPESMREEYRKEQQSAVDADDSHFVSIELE

SMILES: C1CCC2(CC1)CCN(C1=NCCN1)CC2.I [BL-1743, 3-(4,5-Dihydro-1H-imidazol-2-yl)-3-azaspiro[5,5]undecane Hydroiodide, reference compound]
- Hill coefficient for inhibition [1]: 1.0
- AM2 remaing Activity after 100uM inhibition ([2]; TEV, Xenopus oocytes): 25%

SMILES: C1CCC2(CC1)CCN(CC1CC1)CC2 [Compound 1, 3-(Cyclopropylmethyl)-3-azaspiro[5,5]undecane]
- AM2 remaing Activity after 100uM inhibition ([2]; TEV, Xenopus oocytes): 100%

SMILES: C1CCC2(CC1)CCN(CC1CCCC1)CC2 [Compound 2, 3-(Cyclopentylmethyl)-3-azaspiro[5,5]undecane]
- AM2 remaing Activity after 100uM inhibition ([2]; TEV, Xenopus oocytes): 100%

SMILES: c1cc(CN2CCC3(CCCCC3)CC2)cs1 [Compound 3, 3-(Thiophen-3-ylmethyl)-3-azaspiro[5,5]undecane]
- AM2 remaing Activity after 100uM inhibition ([2]; TEV, Xenopus oocytes): 90%

SMILES: Cn1cc(CN2CCC3(CCCCC3)CC2)cn1 [Compound 4, 3-((1-Methyl-1H-pyrazol-4-yl)methyl)-3-azaspiro[5,5]undecane]
- AM2 remaing Activity after 100uM inhibition ([2]; TEV, Xenopus oocytes): 100%

SMILES: Cc1cc(CN2CCC3(CCCCC3)CC2)no1 [Compound 5, 3-(3-Azaspiro[5,5]undecan-3-ylmethyl)-5-methylisoxazole]
- AM2 remaing Activity after 100uM inhibition ([2]; TEV, Xenopus oocytes): 100%

SMILES: c1ccc(CN2CCC3(CCCCC3)CC2)nc1 [Compound 6, 3-(Pyridin-2-ylmethyl)-3-azaspiro[5,5]undecane]
- AM2 remaing Activity after 100uM inhibition ([2]; TEV, Xenopus oocytes): 100%

SMILES: c1nc(CN2CCC3(CCCCC3)CC2)c[nH]1 [Compound 7, 3-((1H-Imidazol-4-yl)methyl)-3-azaspiro[5.5]undecane]
- AM2 remaing Activity after 100uM inhibition ([2]; TEV, Xenopus oocytes): 70%
- inhibitory activity against AM2 (in words) [2]: moderate inhibition

SMILES: c1c[nH]c(CN2CCC3(CCCCC3)CC2)n1 [Compound 8, 3-((1H-Imidazol-2-yl)methyl)-3-azaspiro[5.5]undecane]
- AM2 remaing Activity after 100uM inhibition ([2]; TEV, Xenopus oocytes): 49%
- inhibitory activity against AM2 (in words) [2]: moderate inhibition

SMILES: C1CCC2(CC1)CCNCC2.Cl [Compound 9, 3-Azaspiro[5,5]undecane Chloride]
- IC50 ([2]; Table 2, TEV, Xenopus oocytes): 0.92 ± 0.11 µM
- increase in potency relative to BL-1743 ([2]; ratio of IC50 values): more than 45 fold

SMILES: CN1CCC2(CCCCC2)CC1.Cl [Compound 10, 3-Methyl-3-azoniaspiro[5,5]undecane Chloride]
- decrease in activity relative to spiro-piperidine 9 ([2]; ratio of IC50 values): approximately 20 fold

SMILES: NC(=O)N1CCC2(CCCCC2)CC1 [Compound 12, 3-Azaspiro[5,5]undecane-3-carboxamide]
- inhibitory activity against AM2 (in words) [2]: not active

SMILES: NC(=S)N1CCC2(CCCCC2)CC1 [Compound 13, 3-Azaspiro[5,5]undecane-3-carbothioamide]
- inhibitory activity against AM2 (in words) [2]: not active

SMILES: C1CCC2(CC1)CCNC2 [Compound 16, 2-Azoniaspiro[4,5]decane Chloride]
- IC50 [2]: 12 ± 1.6 µM

SMILES: C1COC2(CCNCC2)OC1 [Compound 17, 1,5-Dioxa-9-azaspiro[5,5]undecane]
- IC50 [2]: > 100 µM
- remaining activity at 100 µM [2, 3]: 100%

SMILES: C1CSC2(CCNCC2)SC1 [Compound 18, 1,5-Dithia-9-azaspiro[5,5]undecane]
- IC50 [2]: 37.6 ± 2.67 µM
- remaining activity at 100 µM [2, 3]: 12%

SMILES: CCC1(C)CCNCC1 [Compound 20, 4-Ethyl-4-methylpiperidinium Chloride]
- remaining activity at 100 µM ([2]; read-out: AM2 remaining Activity after 100uM inhibition): 22%
